The record followed here is ChEMBL document CHEMBL1137905, “Synthesis of anilino-monoindolylmaleimides as potent and selective PKCbeta inhibitors” (Bioorg Med Chem Lett, 2004).

The target in assay [1] is T1, Protein kinase C epsilon type (Homo sapiens, UniProt Q02156).
T1 sequence (Q02156 whole entry): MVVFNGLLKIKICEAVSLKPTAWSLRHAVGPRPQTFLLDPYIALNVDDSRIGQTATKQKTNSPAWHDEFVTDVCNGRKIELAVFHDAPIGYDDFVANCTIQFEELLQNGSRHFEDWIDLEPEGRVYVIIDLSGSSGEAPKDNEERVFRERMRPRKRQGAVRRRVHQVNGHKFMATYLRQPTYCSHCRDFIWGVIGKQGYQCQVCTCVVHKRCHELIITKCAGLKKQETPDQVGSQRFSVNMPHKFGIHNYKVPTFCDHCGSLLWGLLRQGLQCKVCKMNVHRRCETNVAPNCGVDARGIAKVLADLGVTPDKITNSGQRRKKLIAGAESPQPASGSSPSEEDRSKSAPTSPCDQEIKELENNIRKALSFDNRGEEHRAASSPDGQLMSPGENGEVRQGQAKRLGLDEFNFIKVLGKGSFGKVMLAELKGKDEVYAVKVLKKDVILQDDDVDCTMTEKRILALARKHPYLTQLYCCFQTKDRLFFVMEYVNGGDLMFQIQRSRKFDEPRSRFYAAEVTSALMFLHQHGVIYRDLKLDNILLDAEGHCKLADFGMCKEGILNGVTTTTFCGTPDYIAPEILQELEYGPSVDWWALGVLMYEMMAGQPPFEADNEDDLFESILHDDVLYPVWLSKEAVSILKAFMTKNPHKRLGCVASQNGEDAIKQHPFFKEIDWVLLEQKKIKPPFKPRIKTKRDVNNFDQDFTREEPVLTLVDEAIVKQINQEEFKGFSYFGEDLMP
Kind of assay: Inhibitory concentration against recombinant human Protein kinase C epsilon.

Assay [2] has as its target T2, Protein kinase C beta type (Homo sapiens, UniProt P05771). As to the kind of experiment: Inhibitory concentration against recombinant human Protein kinase C beta 1.
In assay [3] the target is T2, Protein kinase C beta type. As to the kind of experiment: Inhibitory concentration against recombinant human Protein kinase C beta 2.
In assay [4] the target is Protein kinase C alpha type (Homo sapiens, UniProt P17252). Kind of assay: Inhibitory concentration against recombinant human Protein kinase C alpha.

T2 sequence (P05771 whole entry): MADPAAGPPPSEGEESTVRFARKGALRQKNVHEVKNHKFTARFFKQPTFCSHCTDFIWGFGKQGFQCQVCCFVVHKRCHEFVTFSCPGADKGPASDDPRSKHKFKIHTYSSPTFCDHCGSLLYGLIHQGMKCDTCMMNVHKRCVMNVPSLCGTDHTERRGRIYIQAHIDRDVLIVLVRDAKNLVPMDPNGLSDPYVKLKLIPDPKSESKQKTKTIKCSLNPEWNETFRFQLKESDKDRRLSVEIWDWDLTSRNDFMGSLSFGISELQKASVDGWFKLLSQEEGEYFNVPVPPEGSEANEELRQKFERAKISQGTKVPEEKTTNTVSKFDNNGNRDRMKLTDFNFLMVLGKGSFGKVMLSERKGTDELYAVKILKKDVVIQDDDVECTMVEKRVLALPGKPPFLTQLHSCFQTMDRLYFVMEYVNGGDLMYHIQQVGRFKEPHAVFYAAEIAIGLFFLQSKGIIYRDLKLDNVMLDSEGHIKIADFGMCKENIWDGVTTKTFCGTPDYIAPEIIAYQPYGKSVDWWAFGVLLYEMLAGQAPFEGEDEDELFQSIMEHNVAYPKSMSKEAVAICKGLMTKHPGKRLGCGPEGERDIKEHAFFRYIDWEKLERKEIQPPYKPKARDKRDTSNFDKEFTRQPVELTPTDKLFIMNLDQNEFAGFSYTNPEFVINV

In the case of `O=C1NC(=O)C(c2c[nH]c3ccccc23)=C1Nc1ccccc1`, the figures for the IC50 in assay [1] and in assay [2] were over 10 µM and 395 nM, respectively. Regarding `O=C1NC(=O)C(c2cn(CCCN3CCCC3)c3ccccc23)=C1Nc1ccccc1`, in assay [1], the IC50 (usually the point on the concentration scale where inhibition reaches its midpoint) is over 10 µM. Still for that read-out and setting: as for `CN1CCN(CCCn2cc(C3=C(Nc4ccccc4)C(=O)NC3=O)c3ccccc32)CC1`, the figure is over 10 µM. `CC(C)c1cccc(NC2=C(c3c[nH]c4ccccc34)C(=O)NC2=O)c1`: the IC50 in assay [3] came out at 2860 nM. With `CN(C)CCCCn1cc(C2=C(Nc3ccccc3)C(=O)NC2=O)c2ccccc21`, the IC50 in assay [1] stood at 5.87 µM. As to `CN(C)CCCCCn1cc(C2=C(Nc3ccccc3)C(=O)NC2=O)c2ccccc21`, the IC50 was found to be 41 nM in assay [3], 3.91 µM in assay [1] and 2230 nM in assay [4]. In the case of `CN(C)CCn1cc(C2=C(Nc3ccccc3)C(=O)NC2=O)c2ccccc21`, the IC50 in assay [1] was over 10 µM.

Consider `O=C1NC(=O)C(c2c[nH]c3ccccc23)=C1NC1CCCCC1`, for which the IC50 in assay [3] worked out at 2450 nM. `O=C1NC(=O)C(c2cn(CCCO)c3ccccc23)=C1Nc1ccccc1`: the IC50 in assay [1] is 6.32 µM. On to `COc1cccc(NC2=C(c3c[nH]c4ccccc34)C(=O)NC2=O)c1`, for which the IC50 in assay [3] is 747 nM. As for `Cc1ccc(NC2=C(c3c[nH]c4ccccc34)C(=O)NC2=O)cc1`, the IC50 in assay [3] amounted to 480 nM. Consider `CN(C1=C(c2c[nH]c3ccccc23)C(=O)NC1=O)c1ccccc1`, for which the IC50 in assay [3] was 939 nM. In the case of `O=C1NC(=O)C(c2cn(CCCN3CCCCC3)c3ccccc23)=C1Nc1ccccc1`, the half-maximal inhibitory concentration (IC50) in assay [1] came to 3.42 µM.

With `CN(C)CCCn1cc(C2=C(Nc3cccc(Cl)c3)C(=O)NC2=O)c2ccccc21`, in assay [1], the IC50 was found to be 2.61 µM. For the compound `O=C1NC(=O)C(c2c[nH]c3ccccc23)=C1NCc1ccccc1`, the IC50 in assay [3] is over 10000 nM. Regarding `CN(C)CCCn1cc(C2=C(Nc3ccccc3)C(=O)NC2=O)c2ccccc21`, in assay [1], the IC50 worked out at 3.46 µM. Regarding `O=C1NC(=O)C(c2cn(CCCn3ccnc3)c3ccccc23)=C1Nc1ccccc1`, the IC50 in assay [1] stood at 2.81 µM; in assay [2], 21 nM.

For `Cc1cccc(NC2=C(c3cn(CCCN(C)C)c4ccccc34)C(=O)NC2=O)c1`, in assay [1], the IC50 is 3.46 µM. For the compound `O=C1NC(=O)C(c2c[nH]c3ccccc23)=C1Nc1cccc(C(F)(F)F)c1`, in assay [3], the IC50 amounted to 1450 nM. The same measure, in the same setting: as for `Cc1ccccc1NC1=C(c2c[nH]c3ccccc23)C(=O)NC1=O`, the figure is 2150 nM.

With `N=C(N)SCCCn1cc(C2=C(Nc3ccccc3)C(=O)NC2=O)c2ccccc21`, in assay [1], the IC50 was 0.058 µM. In the case of `O=C1NC(=O)C(c2c[nH]c3ccccc23)=C1c1c[nH]c2ccccc12` [RO-316233], the IC50 in assay [3] was found to be 212 nM; in assay [1] it was 7.52 µM; in assay [4], 1600 nM; in assay [2] it was 304 nM.
